Source: publication PMC11614538, “The proline-rich antimicrobial peptide B7-005: low bacterial resistance, safe for human cells and effective in zebrafish embryo bacteraemia model” (Open Biology, 2024)
pIC50: −log10 of the molar value. Residues, ends and D or L forms follow the SMILES beside them.

Legend:
HUVECs = assay: Cell viability MTS, HUVEC; type: cell-based, human; settings: 24 h
Procedure: Chronic lymphocytic leukaemia-derived MEC-1 cells were cultured in suspension using complete RPMI (EuroClone), supplemented with 100 U ml^−1 penicillin (Sigma), 100 μg ml^−1 streptomycin (Sigma), 2 mM L-glutamine and 10% (v/v) foetal bovine serum (FBS, EuroClone). A549 human lung carcinoma epithelial cells and immortalized human keratinocytes (HaCaT) were grown in adhesion in complete high glucose Dulbecco’s MEM (DMEM, EuroClone) supplemented with 100 U ml^−1 penicillin (Sigma), […] streptomycin (Sigma), 2 mM L-glutamine and 10% (v/v) of FBS. […] All cell lines were counted in a Bürker chamber and diluted to the desired working concentrations.
Cell viability was evaluated by tetrazolium salt (MTT, or MTS for HUVECs only) tests. […] The next day, absorbance was measured at 570 nm using a Nanoquant Infinite-M200Pro plate reader (Tecan, Switzerland).
HUVECs, 7500 cells per well, were seeded in HESFM with 10% FBS in a 96-well flat-bottomed microtitre plate (EuroClone SpA, Italy). […] The plate was then incubated for 2 h at 37°C in a humidified 5% CO2 atmosphere, and the absorbance was measured at 490 nm, using a spectrophotometer (PowerWaveX, Bio-Tek Instruments). The cytotoxicity was calculated by comparing the absorbance of peptide-treated samples with that of the untreated control and expressed in percentage of vitality. […]

E. coli ATCC 25922 = assay: MIC against E. coli ATCC 25922 in the presence of human serum; type: cell-based, Escherichia coli
Procedure: Escherichia coli ATCC 25922 was purchased from the American Type Culture Collection (ATCC) (Manassas, Virginia, USA) and stored at −80°C as glycerol stock until use. Bacterial cultures were grown overnight in sterile Müller–Hinton broth (MHB) (Difco Inc.) at 37°C under agitation (140 r.p.m.). The next day, the cultures were diluted 1 : 30 in new MHB and incubated as described above for about 2 h (mean logarithmic phase) until they reached an optical density at 600 nm of about 0.3 and then diluted in fresh MHB to the desired concentrations.
The effects of human serum on the antimicrobial activity of B7-005 were assessed by performing a minimum inhibitory concentration (MIC) assay with some modifications. Non-heat-inactivated human serum (Merk Life Science S.r.l., USA) was diluted to 50%, 40%, 30%, 25%, and 20% (v/v) in MHB and the solutions were aliquoted into the wells of a round-bottomed 96-well microtitre plate (Sarstedt, Milan, Italy). Samples with no serum were used for comparison. B7-005 was diluted in MHB added with the proper amount of serum to a concentration of 128 μM, added to the first column of the plate and serially diluted twofold in MHB, added with the proper amount of serum, in the subsequent wells in a final volume of 50 μl. Then 50 μl of a mid-log suspension of 5 × 10^5 CFU ml^−1 E. coli ATCC 25922 cells prepared in MHB added with the proper amount of serum was added to each well of the plate, halving the final concentration of bacteria and peptide. The plate was incubated at 37°C for 18 h. The MIC value was calculated as the lowest concentration of the compound resulting in complete inhibition of visible bacterial growth. MIC values were determined by performing at least three independent experiments (n ≥ 3).

a human cell line = settings: ref [20]; cited from earlier work
Description: In a previous work, we systematically modified Bac7(1-16), an active N-terminal fragment of the natural PrAMP full-length Bac7 [19], to identify the amino acid residues essential for inhibiting protein synthesis, with the goal to discover new derivatives with improved antimicrobial activity. […] B7-005 ...

CC[C@H](C)[C@H](NC(=O)[C@H](CCCNC(=N)N)NC(=O)[C@@H](N)Cc1c[nH]c2ccccc12)C(=O)N[C@@H](CCCNC(=N)N)C(=O)N[C@@H](CCCNC(=N)N)C(=O)N[C@@H](CCCNC(=N)N)C(=O)N[C@@H](Cc1c[nH]c2ccccc12)C(=O)N1CCC[C@H]1C(=O)N[C@@H](CCCNC(=N)N)C(=O)N[C@@H](CC(C)C)C(=O)N1CCC[C@H]1C(=O)N[C@@H](CCCNC(=N)N)C(=O)N1CCC[C@H]1C(=O)N[C@@H](CCCNC(=N)N)C(=O)N[C@@H](Cc1c[nH]c2ccccc12)C(=O)N[C@@H](CCCNC(=N)N)C(=O)O [B7-005] (H-WRIRRRWPRLPRPRWR-OH)
concentration up to which there were no detectable effects (HUVECs): ≥ 128 µM | pIC50 (HUVECs; MTS, HESFM + 10% FBS, n ≥ 9): ~3.59 | MIC of B7-005 (E. coli ATCC 25922; 0% human serum in MH medium, visual, 18 h at 37°C, mode of n = 3): 1 µM | MIC of B7-005 (E. coli ATCC 25922; 20% (v/v) human serum in MH medium, 18 h at 37°C, mode of n = 3): 2 µM | MIC of B7-005 (E. coli ATCC 25922; 20–30% (v/v) human serum): 2 µM | MIC of B7-005 (E. coli ATCC 25922; 25% (v/v) human serum in MH medium, 18 h at 37°C, mode of n = 3): 2 µM | MIC of B7-005 (E. coli ATCC 25922; 30% (v/v) human serum in MH medium, 18 h at 37°C, mode of n = 3): 2 µM | MIC of B7-005 (E. coli ATCC 25922; 40% (v/v) human serum in MH medium, 18 h at 37°C, mode of n = 3): 4 µM | MIC of B7-005 (E. coli ATCC 25922; 50% (v/v) human serum in MH medium, 18 h at 37°C, mode of n = 3): 8 µM | cytotoxicity relative to Bac7(1-16) (a human cell line): did not increase cytotoxicity relative to Bac7(1-16)
